We go through 36 molecules from a melting point compilation (Tetko et al.; mined from patent text by program, amines drawn as free bases though some values may be those of a salt).

For orientation: melting point means the temperature, or range, at which the solid turns liquid. Molecule `Cc1nc2ccc3c(c2nc1C)OC(CN1CC=C(c2c[nH]c4ccc(F)cc24)CC1)CO3` (stereo unspecified) registered a melting point of 138 to 141 °C.

In the case of `Cc1nc(N2CCCC(Cc3cccc(F)c3)C2=O)sc1C(=O)NCc1ccccc1` (stereo unspecified), the melting point fell in the range of 170 to 171 °C. In turn, `CC(C)(C)OC(=O)N1CC(CCl)c2c1ccc1ccc(S(=O)(=O)N(Cc3ccccc3)Cc3ccccc3)cc21` (stereo unspecified) had a melting point of 131 to 133 °C.

Consider `CCCCCCC#Cc1csc(/C=C/C(=O)O)c1`, for which the melting point was determined as 81 °C. Then `CC(=C=CC(C)(C)c1ccc(Cl)cc1)C(=O)O`, with 106 to 108 °C; and `O=C(CCn1cnc2c(=O)[nH]cnc21)NC1CCSC1=O` (stereo unspecified), with 228 to 230 °C; and `COc1ccnc(CCc2nc3c(C)cc(C)nc3[nH]2)c1`, with 176 to 178 °C. Then `COC(=O)Nc1cn2cc(S(=O)(=O)c3ccccc3)ccc2n1`, with 300 °C; and `Cn1ncc2[nH]c3ccc(Cc4ccccc4C(N)=O)cc3c(=O)c21`, with 272 °C. Then `FC(F)(F)c1ccc2nc(N3CCN(Cc4c(Cl)cccc4Cl)CC3)[nH]c2c1`, with 254 to 256 °C; and `O=C(O)Cc1nc(C(=O)c2ccccc2)no1`, with 143 to 144 °C; and `CCn1cc(C(=O)O)c(=O)cc1-c1ccc(N(C)C)c(C)c1`, with 160 to 162 °C. `COC(=O)C(Oc1ccc(F)cc1)c1ccc(Sc2ccc(Cl)cc2)cc1` (stereo unspecified): the melting point was 84.5 to 87 °C. `CC12CCCc3cc(N(CC4CC4)c4ccc(C(=O)O)cc4)cc(c31)CCC2` registered a melting point of 234 to 235 °C. The molecule `COc1ccc(Cc2nc(OCc3ccccc3)cc3cc(OC)c(OC)cc23)cc1OC` returned a melting point of 114 to 116 °C. `COc1cccc2c1OC(COS(=O)(=O)c1ccc(C)cc1)CO2` (stereo unspecified) displayed a melting point of 66 to 68 °C. Then `O=C1Nc2ccccc2C1CCCCN1CCN(c2ccccn2)CC1` (stereo unspecified), with 131 to 132 °C. The molecule `CCOC(=O)N1CC[C@H](NC(=O)c2cc([N+](=O)[O-])c(Cl)cc2OC)[C@H](OC)C1` (relative stereo) returned a melting point of 181 °C.

Regarding `O/N=C\c1cccc(Cl)c1`, the melting point lay within 64 to 66 °C.

The molecule `Cc1cc2c(c3c(=O)cc(C(=O)O)oc13)OC(C)(C)c1cc(S(=O)(=O)O)ccc1-2` had a melting point of 264 to 266 °C. As for `O=C(O)CS(=O)c1cc2onc(-c3ccccc3F)c2cc1Br` (stereo unspecified), the melting point lay within 173 to 174 °C.

Consider `O=C(CCCl)c1ccc2c(c1)CCC2`, for which the melting point is 63.5 to 65.1 °C. To `Cc1cccc(C)c1NC(=O)CS(C)=O` (stereo unspecified) belongs 112 to 114 °C. To `CCc1[nH]c(=O)n(-c2cc(C(=O)OC(C)C)c(Cl)cc2F)c(=O)c1C` belongs 192 to 194 °C; to `Cc1cn2c(nc1=O)CCC2`, 82 °C. To `CN(Cc1ccc(NC(=O)C2=Cc3cc(OCc4cccnc4)ccc3S(=O)(=O)CC2)cc1)C1CCOCC1` belongs 225 to 229 °C; to `C[C@@H](Cn1ncc2ccc(O)c(C=O)c21)NC(=O)OCc1ccccc1`, 135 to 137 °C. `O=[N+]([O-])c1ccc(F)cc1OCC(F)(F)F` showed a melting point of 44 to 45 °C. Molecule `CCOc1cc(C=O)ccc1OCC(=O)O` yielded a melting point of 90 to 92.6 °C. To `Cc1ccc(CC2(O)CCN(CCOC(=O)c3ccc(OCc4ccccc4)cc3)CC2)cc1` belongs 102 °C; to `Nc1cccc(Cc2cc(O)ccc2O)c1`, 151 to 152 °C. `CCCCn1c(=O)c2cc(C(=O)O)cn2c2cc(Cl)c(Cl)cc21` returned a melting point of 281 to 283 °C. To `CCCCCCCCCCCCCCCCCCS(=O)(=O)Nc1cc(C(=O)Nc2ccccc2)ccc1OC` belongs 154 to 156 °C; to `CS(=O)(=S)OCc1ccc(C(=O)O)cc1` (stereo unspecified), 188 °C; to `Cc1ccccc1Cc1ccc(C(=O)O)o1`, 136 to 138 °C. Molecule `CN(C)C(=O)C1CC(c2ccc(-c3ccc(N4C[C@H](Cn5ccnn5)OC4=O)cc3F)cn2)=NO1` (stereo partly specified) yielded a melting point of 180 to 190 °C.
